Here are results for 4 compounds from US11319300B2, “Polyfluoro-substituted aromatic heterocyclic derivative, pharmaceutical composition containing same, and applications thereof” (ZHEJIANG UNIVERSITY, priority 2017, dated 2022).

Marks after values point to notes of the source that are not given here.

Data set [1] has as its target T1, hERG potassium channel (Homo sapiens, UniProt Q12809).
T1 construct: host or cells: CHO
Briefly: hERG potassium channel inhibition, manual whole-cell patch clamp in CHO hERG cells. To be noted: 3 μM, CHO hERG cells, patch clamp. In kind it is cell-based. The protocol:
A Sixty-Third Embodiment: hERG Potassium Channel Inhibition Activity Experiment
The cells used in this assay were CHO cell lines transfected with hERG cDNA and stably expressing the hERG channel (supplied by Sophion Bioscience, Denmark). The cells were cultured in medium containing the following components (all from Invitrogen): Ham's F12 medium, 10% (v/v) inactivated fetal bovine serum, 100 μg/ml hygromycin B, and 100 μg/ml Geneticin. 2.1.2CHO hERG cells were grown in a Petri dish containing the above culture solution, and cultured in an incubator containing 5% of CO2 at 37° C. 24 to 48 hours prior to electrophysiological experiments, CHO hERG cells were transferred to circular glass slides placed in petri dishes and grown under the same culture and culture conditions as above. The density of CHO hERG cells on each circular slide requires that most cells achieve independent, individual requirements.
2. Compound Treatment and Dilution
To obtain the IC50 of the compound, we selecte the following concentrations (30, 10, 3, 1, 0.3, and 0.1 μM) for testing. Prior to testing, the […] were first diluted to 10, 3, 1, 0.3, and 0.1 mM stock solution in gradual dilution with DMSO and then diluted to the final μM test concentration with extracellular fluid. The final concentration of DMSO in each of the other compound solutions was 0.1% except that the DMSO concentration in the 30 μM compound test solution was 0.3%. The positive control Cisapride (cishabili) was tested at a concentration of 0.1 μM. All compound solutions were sonicated and shaken for 5 to 10 minutes to ensure complete dissolution of the compound.
3. Electrophysiological Recording System and Data Analysis
This experiment uses a manual patch clamp system (HEKA EPC-10 signal amplifier and digital conversion system, purchased from HEKA Electronics, Germany) for the recording of whole cell currents. Round slide with CHO hERG cells on the surface was placed in an electrophysiology recording cell under an inverted microscope. The extracellular fluid was continuously perfused in the recording tank (about 1 ml per minute). The experimental procedure uses conventional whole-cell patch clamp current recording techniques. Unless otherwise stated, the experiments were carried out at regular room temperature (˜25° C.). The cells were clamped at a voltage of −80 mV. The cell clamp voltage was depolarized to +20 mV to activate the hERG potassium channel, and after 5 seconds it was clamped to −50 mV to eliminate inactivation and generate tail current. The tail current peak was used as the value of the hERG current magnitude. After the hERG potassium current recorded in the above step was stabilized under the continuous extracellular fluid perfusion in the recording tank, the drug to be tested can be superimposed and filled until the inhibitory effect of the drug on the hERG current reaches a steady state. Generally, the recent three consecutive current recording lines were recombined as a criterion for judging whether or not the state is stable. After reaching a steady state, extracellular fluid perfusion rinse until hERG current returns to the size before adding drug. One cell can test one or more drugs, or multiple concentrations of the same drug, but need to be flushed with extracellular fluid between different drugs. Cisapride (cisapride, purchased from Sigma) was used in the experiment as a positive control to ensure that the cells used were of normal quality. The test data was analysed by HEKA Patchmaster, Microsoft Excel and data analysis software provided by Graphpad Prism.
(In general: The hERG channel carries a current that helps repolarise heart muscle cells.)

The test system of data set [2] is HGC27. Briefly: Tumour cell proliferation inhibition, MTT assay, HGC27. In kind it is cell-based, human. In general terms: Tetrazolium assays rely on reduction of a dye to a coloured formazan, in cell work by metabolically active cells.
The test system of data set [3] is MCF-7. Put plainly: Tumour cell proliferation inhibition, MTT assay, MCF-7. It counts as cell-based, human.
Data set [4] relates to 786-O. Briefly: Tumour cell proliferation inhibition, MTT assay, 786-O. It counts as cell-based, human.
In data set [5] the test system is HCT-116. Put plainly: Tumour cell proliferation inhibition, MTT assay, HCT-116. It counts as cell-based, human. As to the method:
(§1) Compound AZD5363 (NCT02208375, NCT02208375, NCT01625286), which have entered the clinical phase II study, was used as a positive control, and the compound was assayed against common tumour cell lines (human ovarian cancer cell line OVCAR-8 and human colon cancer cell line HCT-116) by MTT assay, at the same time, the akt1 enzyme inhibitory activity (IC50) was evaluated using a commercial Akt1 kit.
1) The pharmacological test method for the tumour cell proliferation inhibiting activity of the compound of the present invention was as follows:
The first was the determination of in vitro tumour growth inhibitory activity and the preliminary structure-activity relationship study, and different solid tumour cell lines were used to determine the in vitro antitumour activity of the synthesized compounds.
Experimental materials: cell lines: human ovarian cancer cells (OVCAR8), colon adenocarcinoma cells (HCT-116),
Medium: OVCAR8: RPMI 1640+fetal calf serum
Drug preparation method: dissolving the drug in DMSO to make a 50 mM of stock solution, and diluting it to a certain ratio to obtain 5 different concentrations.
Tumour Cells being Cultured In Vitro:
The selected tumour cells were incubated in a, 5% of CO2 cell incubator at 37° C., and passaged until the cell density was 70 to 90% (the adherent cells were passaged with Duck's EDTA) and used for subsequent experiments.
The compound was dissolved in dimethyl sulfoxide (DMSO), diluted, and tumour cells were seeded into 4000 cells/200 μL/well in 96-well plates, and 1 μL of compound was added to each well to a final concentration of 50 μM, 10 μM, 2 μM, and 0.4 μM. 0.08 μM were incubated in a, 5% of CO2 cell incubator at 37° C. for 72 hours with DMSO (1%) as a blank control.
The calculation formula of the cell inhibition rate is: cell inhibition rate %=(control group OD value−drug group OD value)/control cell OD value×100%, and the half inhibition concentration (IC50) was determined by the Bliss method.

The subject of data set [6] is CEM-C1. Put plainly: Tumour cell proliferation inhibition, MTT assay, CEM-C1. In kind it is cell-based, human.
A short description of data set [7]: Oral pharmacokinetic experiment in SD rats. To be noted: oral administration, 20 mg/kg, mean n = 3. It counts as in vivo. As to the method:
[…] The blood sampling times of the tail vein administered by intragastric administration were 0.25, 0.5, 1, 2, 4, 6, 8, 10, 24 hours; the times of blood collection by intravenous administration were 0.05, 0.1, 0.17, 0.5, 1, 2, 4, 6, 8, 10, 24 hours. 0.3 ml of whole blood was taken, and after centrifugation, 0.1 ml of plasma was taken and analysed by LC-MS.

Data set [8] has as its system human gastric cancer HGC27 nude mice xenografts. Put plainly: In vivo antitumour activity, human gastric cancer HGC27 nude mice xenografts. The note with it: HGC27 xenograft, 50 mg/kg intragastric once a day. As to the method: A Sixty-Fifth Embodiment: In Vivo Antitumour Activity of Compounds
1) Establishment of a nude mouse xenograft model: 1×10^7 test tumour cells were injected into the armpit of nude mice, after three generations, HGC27 mouse tumour blocks were dissected and placed in a glass dish containing physiological saline, after the necrotic area was removed by incision, the tumour mass was cut into 1-2 mm^3 and inserted into the left axilla of the nude mouse with a trocar.
2) Animal grouping and drug delivery arrangements: after the tumour grows to an average volume of 100-300 mm^3, 20 mice were randomly grouped according to the tumour volume, and the above test animals were given the corresponding test substances by intragastric administration at a dose of 10 mL/kg with once a day.
3) Data measurement and statistics: The tumour volume was weighed and measured twice and dosing period was 21 days. On the 22nd day, after the body weight was weighed and the tumour volume was measured, the nude mice were sacrificed and the tumours were weighed to calculate the relative tumour volume (RTV), relative tumour growth rate (T/C) and tumour inhibition percentage (IR) for statistical testing. The calculation formula was as follows: (a) TV (tumour volume)=½×a×b^2, wherein a and b represent the length and width of the tumour respectively, (b) RTV (relative tumour volume)=Vt/V0, Where V0 is the tumour volume measured at the time of group administration (i.e. d0), Vt is the tumour volume at each measurement, (c) T/C (%)=TRTV/CRTV×100%, wherein TRTV is the RTV of treatment group, CRTV is the RTV of the solvent control group, (d) IR (%)=(1−TWt/TWc)×100%, wherein TWt is the tumour weight of the treatment group, and TWc is the tumour weight of the solvent control group.
Background: In xenograft studies the graft and the host belong to different species.

The target of data set [9] is T2, AKT1/PKBα (Homo sapiens, UniProt P31749).
T2 construct: purchased
T2 sequence (P31749 whole entry): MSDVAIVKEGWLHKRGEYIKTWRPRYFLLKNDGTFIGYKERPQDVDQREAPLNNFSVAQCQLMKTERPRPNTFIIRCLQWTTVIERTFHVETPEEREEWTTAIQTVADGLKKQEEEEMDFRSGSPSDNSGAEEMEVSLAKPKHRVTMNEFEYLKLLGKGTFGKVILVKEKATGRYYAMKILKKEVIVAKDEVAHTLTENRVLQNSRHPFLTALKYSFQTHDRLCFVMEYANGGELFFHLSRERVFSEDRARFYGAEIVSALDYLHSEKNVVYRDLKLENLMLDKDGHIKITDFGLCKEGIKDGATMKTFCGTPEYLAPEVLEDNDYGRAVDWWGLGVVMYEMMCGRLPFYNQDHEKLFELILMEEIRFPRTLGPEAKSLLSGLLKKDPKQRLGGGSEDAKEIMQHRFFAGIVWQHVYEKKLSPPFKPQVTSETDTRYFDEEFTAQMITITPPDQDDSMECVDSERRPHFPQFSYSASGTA
Put plainly: Akt1 enzyme inhibitory activity, AKT1/PKBα KinEASE FP Fluorescein Green Assay. The note with it: fluorescence polarization kit assay; read-out: Akt1 IC50 (grade). It counts as biochemical. As to the method:
as §1
2) Test method for the inhibitory activity of the compound of the present invention against Akt1 enzyme:
The AKT1/PKBα KinEASE™ FP Fluorescein Green Assay (Kinase Green Fluorescence Detection System) was used to detect the inhibitory activity of the compound on AKT1/PKBα.
Fluorescence polarization detection protein kinase B employs the principle of a competitive reaction: a fluorescently labeled phosphorylated tracer and an unlabeled phosphorylated product produced by the reaction of protein kinase B will compete with the anti-serine antibody for binding. In a reaction mixture […], when a part of the fluorescent tracer binds to the antibody, it causes a higher polarization value. However, in the reaction solution mixture containing the phosphorylated product, less tracer binds to the antibody (the fluorescent tracer was replaced from the antibody) and the emitted signal was depolarized. Therefore, the change in polarization was directly related to the activity of protein kinase B in the reaction.
The compound of the present invention and the positive control AZD5363 were dissolved in dimethyl sulfoxide (DMSO) and diluted to a concentration of 50 μM. At room temperature, 0.25 μl of the compound sample and the positive control at a concentration of 50 μM were taken and added to the 384-well plate, and three parallel wells were set for each sample, and then 10 μl of STK Substrate 3, Working Solution, 5 μl AKT1/PKBα Working Solution, 10 μl ATP Working Solution were added to each sample well plate with vibrating gently and shaking for a few minutes. The reaction starts after 10 μl of ATP Working Solution was added to the well, and the reaction was timed at room temperature for 1 hour. After one hour, 5 μl of STK Stop Mix and 5 μl of STK Antibody Mix were added to each well respectively to stop the reaction. After the addition completes, it was allowed to stand at room temperature for four hours, and the polarization value of the sample was detected by the fluorescence polarization of the microplate reader (it was effective to detect its signal within 24 hours), and the inhibition rate of the compound was calculated by the polarization value, and then IC50 was calculated.
Four sets of controls were set in the experiment, namely Buffer Control Wells, Tracer Control Wells, No Enzyme Wells, and a blank dimethyl sulfoxide control. The resulting data was used to calculate the inhibition rate.
The activity of the compound was divided into three grades according to the size of the IC50 of the Akt inhibitory activity: “+++”, 1 nM<IC50<10 nM; “++”, 10 nM<IC50<50 nM; “+”, 50 nM<IC50.

In general, IC50 refers to the midpoint of a concentration-inhibition curve. The term Cmax denotes the maximum level reached in the sampled fluid or tissue. The Tmax is the time from dosing to the highest level.

T1 sequence (Q12809 whole entry): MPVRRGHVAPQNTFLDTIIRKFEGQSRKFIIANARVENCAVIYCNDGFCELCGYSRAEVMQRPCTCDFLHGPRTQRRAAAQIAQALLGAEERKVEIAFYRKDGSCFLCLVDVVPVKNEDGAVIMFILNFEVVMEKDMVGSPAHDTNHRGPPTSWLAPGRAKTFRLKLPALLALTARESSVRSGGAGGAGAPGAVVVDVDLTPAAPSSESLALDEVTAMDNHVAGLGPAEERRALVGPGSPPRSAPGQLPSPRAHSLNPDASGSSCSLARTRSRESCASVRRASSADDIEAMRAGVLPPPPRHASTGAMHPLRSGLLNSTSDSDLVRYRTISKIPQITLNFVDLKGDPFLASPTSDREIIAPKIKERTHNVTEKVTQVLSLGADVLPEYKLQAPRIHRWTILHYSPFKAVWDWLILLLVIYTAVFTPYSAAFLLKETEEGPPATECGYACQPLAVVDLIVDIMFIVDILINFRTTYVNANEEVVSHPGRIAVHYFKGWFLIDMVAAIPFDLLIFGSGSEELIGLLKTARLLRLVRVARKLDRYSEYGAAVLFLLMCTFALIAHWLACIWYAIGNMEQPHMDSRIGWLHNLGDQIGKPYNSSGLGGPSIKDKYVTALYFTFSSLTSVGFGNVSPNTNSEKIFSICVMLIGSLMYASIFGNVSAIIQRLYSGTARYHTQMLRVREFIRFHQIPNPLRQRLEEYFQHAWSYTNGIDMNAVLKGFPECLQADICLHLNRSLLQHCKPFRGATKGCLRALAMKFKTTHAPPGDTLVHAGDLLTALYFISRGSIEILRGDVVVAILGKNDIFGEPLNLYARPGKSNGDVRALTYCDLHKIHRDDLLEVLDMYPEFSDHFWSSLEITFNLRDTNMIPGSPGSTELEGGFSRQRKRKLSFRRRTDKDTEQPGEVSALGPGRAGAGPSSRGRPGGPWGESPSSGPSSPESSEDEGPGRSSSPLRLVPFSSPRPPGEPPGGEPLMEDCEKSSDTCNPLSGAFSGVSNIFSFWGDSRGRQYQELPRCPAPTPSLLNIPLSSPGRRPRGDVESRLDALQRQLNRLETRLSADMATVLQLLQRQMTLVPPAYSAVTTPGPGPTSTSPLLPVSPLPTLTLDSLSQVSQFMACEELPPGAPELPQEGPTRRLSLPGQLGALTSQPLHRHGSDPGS

With `Cn1ncc(Cl)c1-c1cc(C(=O)N[C@H]2CNCC[C@@H]2c2ccc(F)c(F)c2)oc1Cl` (racemic) [reference compound], the “hERG (Inhibition rate at 3 μM concentration)” value in [1] worked out at 62%.
With `Cn1nccc1-c1ccc(C(=O)N[C@@H]2CNCC[C@H]2c2ccc(F)c(F)c2)c(F)c1` [VII-1a], in data set [2] (72 hours), the IC50 was found to be 40 nM. In data set [3] (72 hours), the IC50 was found to be 2250 nM. The same compound returned an IC50 in [4] (72 hours) of 560 nM. This compound yielded a concentration for half-maximal inhibition (IC50) in data set [5] (72 hours) of 1340 nM. In data set [6] (72 hours), this compound displayed an IC50 of 100 nM. For the same compound, in [1], the “hERG (Inhibition rate at 3 μM concentration)” value is reported as 15.9%. Also, in [7], the “1/2” value came to 3.34 h, the AUC0-inf is 1500 ng·h/mL and the AUC0-t amounted to 1480 ng·h/mL. In addition, in data set [7] (rat, plasma), the highest level (Cmax) was 132 ng/mL and the Tmax stood at 4.17 h. Moreover, in data set [8], the RTV worked out at 11.37 ± 3.07 and the “T/C(%)” value is listed as 26.95%. Also, in data set [8] (D1 (start)), the “Tumour volume D1” value worked out at 213 ± 102 mm^3. Moreover, the “Tumour volume D22” value in data set [8] (D22) is 1498 ± 206* mm^3.
As for `Cn1nccc1-c1ccc(C(=O)N[C@@H]2CNCC[C@H]2c2cc(F)c(F)c(F)c2)c(F)c1` [VII-8], the half-inhibitory concentration (IC50) in data set [9] is 1 to 10 nM; in data set [2] (Homo sapiens, HGC-27, 72 h), 20 nM; in data set [3] (Homo sapiens, MCF7, 72 h), 1850 nM; in data set [4] (Homo sapiens, 786-0, 72 h), 1650 nM; in data set [5] (Homo sapiens, HCT-116, 72 h), 1520 nM; in [6] (Homo sapiens, CEM/C1, 72 h), 120 nM. Moreover, the “hERG (Inhibition rate at 3 μM concentration)” value in data set [1] was determined as 11.8%.
Regarding `Cn1nccc1-c1cc(F)c(C(=O)N[C@@H]2CNCC[C@H]2c2ccc(F)c(F)c2)cc1F` [VII-18], the half-inhibitory concentration (IC50) is 1 to 10 nM in [9]; 30 nM in [2] (Homo sapiens, HGC-27, 72 h); 1180 nM in [3] (Homo sapiens, MCF7, 72 h); 550 nM in data set [4] (Homo sapiens, 786-0, 72 h); 990 nM in [5] (Homo sapiens, HCT-116, 72 h); 20 nM in [6] (Homo sapiens, CEM/C1, 72 h). The “hERG (Inhibition rate at 3 μM concentration)” value in [1] is on record as 17.6%.
